# Measurements as given in patent US9718828B2 (MERCK SHARP & DOHME CORP., priority 2011, dated 2017).
# Structures can show the parent of a compound that is named as a salt.
# Target: Btk enzyme (His-Btk) (Homo sapiens (Human), UniProt Q06187)
# Test: Btk enzyme activity, IMAP fluorescence polarization assay (Assay Method A)
# Details: not given
# Chain of Btk enzyme (His-Btk) (Q06187 whole entry): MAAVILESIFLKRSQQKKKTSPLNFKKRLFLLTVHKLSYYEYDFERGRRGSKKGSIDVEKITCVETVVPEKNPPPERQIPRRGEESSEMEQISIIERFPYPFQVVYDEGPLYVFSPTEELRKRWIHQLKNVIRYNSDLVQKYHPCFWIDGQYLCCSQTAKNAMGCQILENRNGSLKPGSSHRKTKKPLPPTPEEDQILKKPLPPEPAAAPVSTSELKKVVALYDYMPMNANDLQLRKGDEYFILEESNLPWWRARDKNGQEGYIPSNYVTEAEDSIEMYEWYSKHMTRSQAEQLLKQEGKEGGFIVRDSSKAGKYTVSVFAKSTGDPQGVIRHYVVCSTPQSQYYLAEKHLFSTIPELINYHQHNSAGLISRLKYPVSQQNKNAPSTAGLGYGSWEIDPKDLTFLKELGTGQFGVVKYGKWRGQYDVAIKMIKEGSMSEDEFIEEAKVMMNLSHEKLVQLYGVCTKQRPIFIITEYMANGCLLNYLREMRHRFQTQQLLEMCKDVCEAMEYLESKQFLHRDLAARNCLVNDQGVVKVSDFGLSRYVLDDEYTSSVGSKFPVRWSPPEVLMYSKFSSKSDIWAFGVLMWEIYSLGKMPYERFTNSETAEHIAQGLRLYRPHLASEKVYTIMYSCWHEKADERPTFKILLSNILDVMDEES
row,Structure (SMILES),EC50 [nM]
1,"COCCC(=O)N1CCC2(CC1)CC2c1nc(-c2ccc(C(=O)Nc3ccccn3)cc2)c2c(N)nccn12 (centres unmarked) [Example 151, 4-(8-amino-3-(6-(3-methoxypropanoyl)-6-azaspiro[2.5]octan-1-yl)imidazo[1,5-a]pyrazin-1-yl)-N-(pyridin-2-yl)benzamide]",100 to 1000
2,"Nc1nccn2c1c(-c1ccc(C(=O)Nc3ccccn3)c(Cl)c1)nc2[C@H]1CC[C@H](O)CC1 [Example 23, 4-(8-amino-3-((trans)-4-hydroxycyclohexyl)imidazo[1,5-a]pyrazin-1-yl)-2-chloro-N-(pyridin-2-yl)benzamide]",10 to 100
3,"Cc1noc(C)c1C(=O)N1CCC[C@@H](c2nc(-c3ccc(C(=O)Nc4cc(C(F)(F)F)ccn4)cc3)c3c(N)nccn23)C1 [Example 74, (R)-4-(8-amino-3-(1-(3,5-dimethylisoxazole-4-carbonyl)piperidin-3 yl)imidazo[1,5-a]pyrazin-1-yl)-N-(4-(trifluoromethyl)pyridin-2-yl)benzamide]",< 10

# Further lines, results first:
row,EC50 [nM],Structure (SMILES)
1,< 10,"CCOC(=O)N1C[C@H](c2nc(-c3ccc(C(=O)Nc4cc(C(F)(F)F)ccn4)cc3)c3c(N)nccn23)CC[C@H]1C (relative stereo) [Example 182, (trans)-ethyl 5-(8-amino-1-(4-(4-(trifluoromethyl)pyridin-2-ylcarbamoyl)phenyl)imidazo [1,5-a]pyrazin-3-yl)-2-methylpiperidine-1-carboxylate, TFA salt]"
2,≥ 1000,"Cc1nc(-c2ccc(C(=O)Nc3cc(C(F)(F)F)ccn3)cc2)c2c(N)ncc(C(=O)N(C)C)n12 [Example 293, 8-amino-N,N,3-trimethyl-1-(4-(4-(trifluoromethyl)pyridin-2-ylcarbamoyl)phenyl)imidazo[1,5-a]pyrazine-5-carboxamide]"
3,100 to 1000,"CCCc1ccnc(NC(=O)c2ccc(-c3nc(C)n4c(C(=O)NCCCOC)cnc(N)c34)cc2)c1 [Example 294, 8-amino-N-(3-methoxypropyl)-3-methyl-1-(4-(4-propylpyridin-2-ylcarbamoyl)phenyl)imidazo[1,5-a]pyrazine-5-carboxamide]"

# Same assay, conditions: read-out: EC50 Btk activity values - Assay Method A; IMAP-FP, 60 min pre-incubation, 5 μM ATP; class 100-1000 is given as ≧100 nM-<1 μM
row,Structure (SMILES),EC50 [nM]
1,"CC1(C(=O)N2CCC[C@@H](c3nc(-c4ccc(C(=O)Nc5cc(C(F)(F)F)ccn5)cc4)c4c(N)ncc(Cl)n34)C2)COC1 [Example 301, (R)-4-(8-amino-5-chloro-3-(1-(3-methyloxetane-3-carbonyl)piperidin-3-yl)imidazo[1,5-a]pyrazin-1-yl)-N-(4-(trifluoromethyl)pyridin-2-yl)benzamide]",< 10
2,"Nc1ncnc2c1c(-c1ccc(C(=O)Nc3cc(C(F)(F)F)ccn3)cc1)nn2[C@@H]1CCCN(C(=O)C2CC2)C1 [Example 269, (R)-4-(4-amino-1-(1-(cyclopropanecarbonyl)piperidin-3-yl)-1H-pyrazolo[3,4-d]pyrimidin-3-yl)-N-(4-(trifluoromethyl)pyridin-2-yl)benzamide]",< 10
3,"CC1CCc2nc(NC(=O)c3ccc(-c4nc([C@H]5CC[C@H](O)CC5)n5ccnc(N)c45)cc3)sc2C1 (stereo partly drawn) [Example 14, 4-(8-amino-3-((trans)-4-hydroxycyclohexyl)imidazo[1,5-a]pyrazin-1-yl)-N-(6-methyl-4,5,6,7-tetrahydrobenzo[d]thiazol-2-yl)benzamide]",< 10
4,"CC(C)(F)C(=O)N[C@@H]1CCC[C@@H](c2nc(-c3ccc(C(=O)Nc4cc(C(F)(F)F)ccn4)cc3)c3c(N)nccn23)C1 (relative stereo) [Example 163, 4-(8-amino-3-((trans)-3-(2-fluoro-2-methylpropanamido)cyclohexyl)imidazo[1,5-a]pyrazin-1-yl)-N-(4-(trifluoromethyl)pyridin-2-yl)benzamide]",< 10
5,"C[C@H]1CC[C@@H](c2nc(-c3ccc(C(=O)Nc4ccccn4)cc3)c3c(N)nccn23)CN1C(=O)CC1CC1 (relative stereo) [Example 191, 4-(8-amino-3-((cis)-1-(2-cyclopropylacetyl)-6-methylpiperidin-3-yl)imidazo[1,5-a]pyrazin-1-yl)-N-(pyridin-2-yl)benzamide, TFA salt]",< 10
